{"source": "ChEMBL document CHEMBL1157187", "about": "“Chemical synthesis of 2beta-amino-5alpha-androstane-3alpha,17beta-diol N-derivatives and their antiproliferative effect on HL-60 human leukemia cells” (Bioorg Med Chem, 2008)", "key": {"HL-60 [1]": {"test_system": "HL-60", "assay": "Increase in CD11b expression in human HL60 cells", "format": "functional"}, "HL-60 [2]": {"test_system": "HL-60", "assay": "Growth inhibition of human HL60 cells at 1 uM after 3 days", "format": "functional", "conditions": "HL-60, 72 h"}, "HL-60 [3]": {"test_system": "HL-60", "assay": "Growth inhibition of human HL60 cells at 10 uM after 3 days", "format": "functional", "conditions": "HL-60, 72 h"}, "HL-60 [4]": {"test_system": "HL-60", "assay": "Increase in CD11b/CD14 double expression in human HL60 cells", "format": "functional"}, "HL-60 [5]": {"test_system": "HL-60", "assay": "Growth inhibition of human HL60 cells after 3 days", "format": "functional, cell-based", "conditions": "HL-60, 72 h"}}, "note": "pIC50: −log10 of the molar value.", "data": [{"smiles": "CCCCCCCCN[C@H]1C[C@@]2(C)[C@@H](CC[C@@H]3[C@@H]2CC[C@]2(C)[C@@H](O)CC[C@@H]32)C[C@@H]1O", "values": [{"measurement": "Activity", "setting": "HL-60 [1]", "value": 29, "unit": "%"}, {"measurement": "inhibition at 1 µM", "setting": "HL-60 [2]", "value": 0, "unit": "%"}, {"measurement": "inhibition at 10 µM", "setting": "HL-60 [3]", "value": 99.2, "unit": "%"}, {"measurement": "Activity", "setting": "HL-60 [4]", "value": 10, "unit": "%"}, {"measurement": "pIC50", "setting": "HL-60 [5]", "value": 5.19}]}, {"smiles": "CCCCCCCCCN1CCN([C@H]2C[C@@]3(C)[C@@H](CC[C@@H]4[C@@H]3CC[C@]3(C)[C@@H](O)CC[C@@H]43)C[C@@H]2O)CC1", "values": [{"measurement": "Activity", "setting": "HL-60 [1]", "value": 55, "unit": "%"}, {"measurement": "inhibition at 1 µM", "setting": "HL-60 [2]", "value": 9.1, "unit": "%"}, {"measurement": "inhibition at 10 µM", "setting": "HL-60 [3]", "value": 99.8, "unit": "%"}, {"measurement": "Activity", "setting": "HL-60 [4]", "value": 32, "unit": "%"}, {"measurement": "pIC50", "setting": "HL-60 [5]", "value": 5.38}]}, {"smiles": "CC(C)N[C@H]1C[C@@]2(C)[C@@H](CC[C@@H]3[C@@H]2CC[C@]2(C)[C@@H](O)CC[C@@H]32)C[C@@H]1O", "values": [{"measurement": "inhibition at 1 µM", "setting": "HL-60 [2]", "value": 0, "unit": "%"}, {"measurement": "inhibition at 10 µM", "setting": "HL-60 [3]", "value": 0, "unit": "%"}]}, {"smiles": "C[C@]12C[C@H](NCCC(c3ccccc3)c3ccccc3)[C@@H](O)C[C@@H]1CC[C@@H]1[C@@H]2CC[C@]2(C)[C@@H](O)CC[C@@H]12", "values": [{"measurement": "Activity", "setting": "HL-60 [1]", "value": 58, "unit": "%"}, {"measurement": "inhibition at 1 µM", "setting": "HL-60 [2]", "value": 12.9, "unit": "%"}, {"measurement": "inhibition at 10 µM", "setting": "HL-60 [3]", "value": 95.2, "unit": "%"}, {"measurement": "Activity", "setting": "HL-60 [4]", "value": 39, "unit": "%"}, {"measurement": "pIC50", "setting": "HL-60 [5]", "value": 5.51}]}, {"smiles": "CCCCN[C@H]1C[C@@]2(C)[C@@H](CC[C@@H]3[C@@H]2CC[C@]2(C)[C@@H](O)CC[C@@H]32)C[C@@H]1O", "values": [{"measurement": "inhibition at 1 µM", "setting": "HL-60 [2]", "value": 0, "unit": "%"}, {"measurement": "inhibition at 10 µM", "setting": "HL-60 [3]", "value": 3.1, "unit": "%"}]}, {"smiles": "CCCC(C)N1CCN([C@H]2C[C@@]3(C)[C@@H](CC[C@@H]4[C@@H]3CC[C@]3(C)[C@@H](O)CC[C@@H]43)C[C@@H]2O)CC1", "note": "(stereo partly drawn)", "values": [{"measurement": "inhibition at 1 µM", "setting": "HL-60 [2]", "value": 0, "unit": "%"}, {"measurement": "inhibition at 10 µM", "setting": "HL-60 [3]", "value": 9.2, "unit": "%"}]}, {"smiles": "CC(C)(C)N[C@H]1C[C@@]2(C)[C@@H](CC[C@@H]3[C@@H]2CC[C@]2(C)[C@@H](O)CC[C@@H]32)C[C@@H]1O", "values": [{"measurement": "inhibition at 1 µM", "setting": "HL-60 [2]", "value": 0, "unit": "%"}, {"measurement": "inhibition at 10 µM", "setting": "HL-60 [3]", "value": 0.5, "unit": "%"}]}, {"smiles": "C[C@]12C[C@H](N3CCN(Cc4ccccc4)CC3)[C@@H](O)C[C@@H]1CC[C@@H]1[C@@H]2CC[C@]2(C)[C@@H](O)CC[C@@H]12", "values": [{"measurement": "inhibition at 1 µM", "setting": "HL-60 [2]", "value": 0, "unit": "%"}, {"measurement": "inhibition at 10 µM", "setting": "HL-60 [3]", "value": 25.7, "unit": "%"}]}, {"smiles": "CCC(=O)N1CCN([C@H]2C[C@@]3(C)[C@@H](CC[C@@H]4[C@@H]3CC[C@]3(C)[C@@H](O)CC[C@@H]43)C[C@@H]2O)CC1", "values": [{"measurement": "inhibition at 1 µM", "setting": "HL-60 [2]", "value": 0, "unit": "%"}, {"measurement": "inhibition at 10 µM", "setting": "HL-60 [3]", "value": 0, "unit": "%"}]}, {"smiles": "C[C@]12C[C@H](N3CCN(c4ccccc4)CC3)[C@@H](O)C[C@@H]1CC[C@@H]1[C@@H]2CC[C@]2(C)[C@@H](O)CC[C@@H]12", "values": [{"measurement": "inhibition at 1 µM", "setting": "HL-60 [2]", "value": 7, "unit": "%"}, {"measurement": "inhibition at 10 µM", "setting": "HL-60 [3]", "value": 36.6, "unit": "%"}]}, {"smiles": "C[C@]12C[C@H](N3CCN(c4ccc(F)cc4)CC3)[C@@H](O)C[C@@H]1CC[C@@H]1[C@@H]2CC[C@]2(C)[C@@H](O)CC[C@@H]12", "values": [{"measurement": "inhibition at 1 µM", "setting": "HL-60 [2]", "value": 0, "unit": "%"}, {"measurement": "inhibition at 10 µM", "setting": "HL-60 [3]", "value": 10.1, "unit": "%"}]}, {"smiles": "CCCCCN[C@H]1C[C@@]2(C)[C@@H](CC[C@@H]3[C@@H]2CC[C@]2(C)[C@@H](O)CC[C@@H]32)C[C@@H]1O", "values": [{"measurement": "inhibition at 1 µM", "setting": "HL-60 [2]", "value": 0, "unit": "%"}, {"measurement": "inhibition at 10 µM", "setting": "HL-60 [3]", "value": 0, "unit": "%"}]}, {"smiles": "CCCCCCCCCCCCN[C@H]1C[C@@]2(C)[C@@H](CC[C@@H]3[C@@H]2CC[C@]2(C)[C@@H](O)CC[C@@H]32)C[C@@H]1O", "values": [{"measurement": "inhibition at 1 µM", "setting": "HL-60 [2]", "value": 0, "unit": "%"}, {"measurement": "inhibition at 10 µM", "setting": "HL-60 [3]", "value": 92, "unit": "%"}]}, {"smiles": "C[C@]12C[C@H](C3NCCc4ccccc43)[C@@H](O)C[C@@H]1CC[C@@H]1[C@@H]2CC[C@]2(C)[C@@H](O)CC[C@@H]12", "note": "(stereo partly drawn)", "values": [{"measurement": "inhibition at 1 µM", "setting": "HL-60 [2]", "value": 3.4, "unit": "%"}, {"measurement": "inhibition at 10 µM", "setting": "HL-60 [3]", "value": 29.6, "unit": "%"}]}, {"smiles": "CC(C)(C)CN[C@H]1C[C@@]2(C)[C@@H](CC[C@@H]3[C@@H]2CC[C@]2(C)[C@@H](O)CC[C@@H]32)C[C@@H]1O", "values": [{"measurement": "inhibition at 1 µM", "setting": "HL-60 [2]", "value": 0, "unit": "%"}, {"measurement": "inhibition at 10 µM", "setting": "HL-60 [3]", "value": 3.3, "unit": "%"}]}, {"smiles": "C[C@]12C[C@H](NCC34CC5CC(CC(C5)C3)C4)[C@@H](O)C[C@@H]1CC[C@@H]1[C@@H]2CC[C@]2(C)[C@@H](O)CC[C@@H]12", "values": [{"measurement": "inhibition at 1 µM", "setting": "HL-60 [2]", "value": 6.4, "unit": "%"}, {"measurement": "inhibition at 10 µM", "setting": "HL-60 [3]", "value": 85.8, "unit": "%"}]}, {"smiles": "COc1cccc2c1C(=O)c1c(O)c3c(c(O)c1C2=O)C[C@@](O)(C(=O)CO)C[C@@H]3O[C@H]1C[C@H](N)[C@H](O)[C@H](C)O1", "note": "[DOXORUBICIN]", "values": [{"measurement": "inhibition at 1 µM", "setting": "HL-60 [2]", "value": 91.8, "unit": "%"}, {"measurement": "inhibition at 10 µM", "setting": "HL-60 [3]", "value": 94.6, "unit": "%"}, {"measurement": "pIC50", "setting": "HL-60 [5]", "value": 7.00}]}, {"smiles": "C[C@]12C[C@H](N3CCN(Cc4ccc5c(c4)OCO5)CC3)[C@@H](O)C[C@@H]1CC[C@@H]1[C@@H]2CC[C@]2(C)[C@@H](O)CC[C@@H]12", "values": [{"measurement": "inhibition at 1 µM", "setting": "HL-60 [2]", "value": 0, "unit": "%"}, {"measurement": "inhibition at 10 µM", "setting": "HL-60 [3]", "value": 26.1, "unit": "%"}]}, {"smiles": "C[C@]12C[C@H](NC3CCCCCC3)[C@@H](O)C[C@@H]1CC[C@@H]1[C@@H]2CC[C@]2(C)[C@@H](O)CC[C@@H]12", "values": [{"measurement": "inhibition at 1 µM", "setting": "HL-60 [2]", "value": 0, "unit": "%"}, {"measurement": "inhibition at 10 µM", "setting": "HL-60 [3]", "value": 0, "unit": "%"}]}]}
